Assay results from patent publication US7973051B2 (Hoffman-La Roche Inc., priority 2007, dated 2011).

Biological target: T1, human liver FBPase (Homo sapiens, UniProt P09467)
T1 construct: made in house; host or cells: E. coli
T1 sequence (P09467 2-338 limits assumed): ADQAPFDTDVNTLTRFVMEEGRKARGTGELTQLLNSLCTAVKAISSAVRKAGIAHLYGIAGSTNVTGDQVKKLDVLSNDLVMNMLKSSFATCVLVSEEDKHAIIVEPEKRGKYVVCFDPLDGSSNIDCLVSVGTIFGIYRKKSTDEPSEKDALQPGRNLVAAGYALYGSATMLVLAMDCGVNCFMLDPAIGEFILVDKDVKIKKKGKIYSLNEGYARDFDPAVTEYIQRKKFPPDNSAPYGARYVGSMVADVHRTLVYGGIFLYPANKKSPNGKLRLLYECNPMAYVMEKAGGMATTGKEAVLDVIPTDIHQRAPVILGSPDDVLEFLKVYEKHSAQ
Assay: FBPase assay: inorganic phosphate release (malachite green)
Format: biochemical
Details: recombinant human liver FBPase, 50 μM fructose-1,6-bisphosphate, read-out at 620 nm
Summary of the method: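 Recombinant human liver FBPase (E. coli-expressed, >90% pure), 25 ng per reaction, with 50 μM fructose-1,6-bisphosphate in 50 mM HEPES-KOH pH 7.2, 2 mM MgCl2, 2 mM EDTA, 1 mM DTT, 1% DMSO. After 50 min at room temperature, released phosphate was complexed with malachite green/ammonium molybdate and read at 620 nm.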

**Q.** How did the IC50 turn out when COC(=O)c1ccc2scc(S(=O)(=O)NC(=O)Nc3ncc(Br)s3)c2c1 [Example 10, Methyl-3-({[(5-bromo-1,3-thiazol-2-yl)carbamoyl]amino}sulfonyl)-1-benzothiophene-5-carboxylate] was run?
**A.** 446 nM

**Q.** With CCc1sc(NC(=O)NS(=O)(=O)c2csc(C)c2)nc1-c1ccccc1 [Example 71, N-[(5-Ethyl-4-phenyl-1,3-thiazol-2-yl)carbamoyl]-5-methylthiophene-3-sulfonamide] as the compound, how does the IC50 read?
**A.** 159 nM

**Q.** For CCc1nc(NC(=O)NS(=O)(=O)c2cc(CCOC)c(C)s2)sc1Br [Example 59, N-[(5-Bromo-4-ethyl-1,3-thiazol-2-yl)carbamoyl]-4-(2-methoxyethyl)-5-methylthiophene-2-sulfonamide], which IC50 is on record?
**A.** 434 nM

**Q.** CCc1sc(NC(=O)NS(=O)(=O)c2cc(C)c(CCOC)s2)nc1-c1ccccc1 [Example 72, N-[(5-Ethyl-4-phenyl-1,3-thiazol-2-yl)carbamoyl]-5-(2-methoxyethyl)-4-methylthiophene-2-sulfonamide] was tested. Which IC50 did it give?
**A.** 224 nM

**Q.** Which IC50 does the source give for Cc1ccc2scc(S(=O)(=O)NC(=O)Nc3ncc(Br)s3)c2c1 [Example 11, N-[(5-Bromo-1,3-thiazol-2-yl)carbamoyl]-5-methyl-1-benzothiophene-3-sulfonamide] here?
**A.** 624 nM

**Q.** For COCc1nc(NC(=O)NS(=O)(=O)c2cc(C)c(CCOC(C)=O)s2)sc1SC [Example 87, 2-{5-[({[4-(Methoxymethyl)-5-(methylthio)-1,3-thiazol-2-yl]carbamoyl}amino)sulfonyl]-3-methyl-2-thienyl}ethyl acetate], which IC50 is on record?
**A.** 501 nM

**Q.** For O=C(Nc1ncc(Br)s1)NS(=O)(=O)c1cc2c(s1)CCOC2 [Example 6, N-[(5-Bromo-1,3-thiazol-2-yl)carbamoyl]-6,7-dihydro-4H-thieno[3,2-c]pyran-2-sulfonamide], which IC50 is on record?
**A.** 528 nM

**Q.** Which IC50 does the source give for Cc1cc(S(=O)(=O)NC(=O)Nc2nc(-c3ccccc3)c(C)s2)sc1CCO [Example 76, 5-(2-Hydroxyethyl)-4-methyl-N-[(5-methyl-4-phenyl-1,3-thiazol-2-yl)carbamoyl]thiophene-2-sulfonamide] here?
**A.** 280 nM

**Q.** With COCCOc1cccc2c(S(=O)(=O)NC(=O)Nc3ncc(Br)s3)cn(C)c12 [Example 42, N-[(5-bromo-1,3-thiazol-2-yl)carbamoyl]-7-(2-methoxyethoxy)-1-methyl-1H-indole-3-sulfonamide] as the compound, how does the IC50 read?
**A.** 375 nM

**Q.** How did the IC50 turn out when Cc1c(S(=O)(=O)NC(=O)Nc2ncc(Br)s2)sc2ccc(Br)cc12 [Example 5, 5-Bromo-N-[(5-bromo-1,3-thiazol-2-yl)carbamoyl]-3-methyl-1-benzothiophene-2-sulfonamide] was run?
**A.** 1470 nM

**Q.** COCc1oc(S(=O)(=O)NC(=O)Nc2ncc(Br)s2)cc1C [Example 36, N-[(5-Bromo-1,3-thiazol-2-yl)carbamoyl]-5-(methoxymethyl)-4-methylfuran-2-sulfonamide] was tested. Which IC50 did it give?
**A.** 315 nM

**Q.** How did the IC50 turn out when Cn1cc(S(=O)(=O)NC(=O)Nc2ncc(Br)s2)c2ccccc21 [Example 23, N-[(5-Bromo-1,3-thiazol-2-yl)carbamoyl]-1-methyl-1H-indole-3-sulfonamide] was run?
**A.** 385 nM
